From PMC3606667 (Journal of natural products, 2013)
Where two headings read alike, the source gives them in different places.

Assays:
NF-κB (p65) = NF-κB (p65) (Homo sapiens, UniProt Q04206); assay: Enzyme-based ELISA NF-κB; type: biochemical; details: for NF-κB (p65) inhibitory activity (in words): ELISA assay; for times more potent than the control compound rocaglamide in NF-κB (p65) assay: relative to rocaglamide
[1] = test system: human monocytic leukemia cell line MONO-MAC-6; details: cited from earlier work
[2] = test system: human monocytic leukemia cell line MONO-MAC-1; details: cited from earlier work
[3] = test system: HT-29 human colon cancer cells; assay: Cytotoxicity against HT-29 human colon cancer cells; type: cell-based; details: relative to perviridisin B (2), ED50 0.46 µM
[4] = test system: CCD-112CoN normal colon cell line; assay: Cytotoxicity against CCD-112CoN normal colon cell line; type: cell-based; details: read-out: CCD112CoNl ED50
[5] = test system: LNCaP human prostate cancer cells; details: cited from earlier work
[6] = NF-κB (p65) ED50, ELISA assay, ED50 > 20 µM inactive

Chain of NF-κB (p65) (Q04206 whole entry): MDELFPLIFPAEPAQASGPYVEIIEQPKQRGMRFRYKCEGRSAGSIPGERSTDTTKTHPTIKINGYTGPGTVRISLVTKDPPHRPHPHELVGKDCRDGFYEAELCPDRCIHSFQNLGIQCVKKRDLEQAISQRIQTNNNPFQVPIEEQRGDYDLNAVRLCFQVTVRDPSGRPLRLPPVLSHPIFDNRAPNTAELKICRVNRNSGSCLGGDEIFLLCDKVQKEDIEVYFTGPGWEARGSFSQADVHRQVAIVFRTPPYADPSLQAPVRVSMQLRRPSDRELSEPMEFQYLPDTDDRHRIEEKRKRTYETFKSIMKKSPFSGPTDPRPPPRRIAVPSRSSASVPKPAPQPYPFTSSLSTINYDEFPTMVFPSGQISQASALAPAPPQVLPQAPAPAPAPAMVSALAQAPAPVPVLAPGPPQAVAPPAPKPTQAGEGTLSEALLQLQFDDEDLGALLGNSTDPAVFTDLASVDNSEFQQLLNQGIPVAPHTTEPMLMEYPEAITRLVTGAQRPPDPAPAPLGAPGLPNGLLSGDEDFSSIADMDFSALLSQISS

| SMILES | IC50 (NF-κB (p65)) [µM] | IC50 (NF-κB (p65); [6]) [µM] | CC50 [4] [µM] | further results |
| --- | --- | --- | --- | --- |
| COc1ccc(-c2oc3cc(OC)cc(OC)c3c(=O)c2O)cc1 [5,7,4′-tri-O-methylkaempferol] | > 20 |  |  |  |
| COc1ccc([C@@]23Oc4cc(OC)cc(OC)c4[C@]2(OC)[C@H](O)C[C@H]3c2ccccc2)cc1 [8b-O-methylrocaglaol] |  | > 20 |  | cytotoxicity result in MONO-MAC-6 [1]: negative result; cytotoxicity result in MONO-MAC-1 [2]: negative result |
| COc1ccc([C@]23Oc4cc(OC)cc(OC)c4[C@](O)(C2O)[C@@H](c2ccccc2)[C@@H]3C(=O)NCCCCNC(=O)/C(C)=C/CO)cc1 (stereo partly shown) [Compound 1, perviridisin A] |  | > 20 |  | times less active than its C-10 epimer perviridisin B (2) against HT-29 cells [3]: over 25 times |
| COc1ccc([C@]23Oc4cc(OC)cc(OC)c4[C@](O)(C2O)[C@@H](c2ccccc2)[C@@H]3C(=O)NCCCCNC(=O)/C(C)=C/CO)cc1 (stereo partly shown) [Compound 2, perviridisin B] |  |  | > 50 | NF-κB (p65) inhibitory activity (in words) (NF-κB (p65)): significant NF-κB (p65) inhibitory activity; IC50 (NF-κB (p65); NF-κB (p65) ED50): 2.4 µM |
| COc1cc(OC)c2c(c1)O[C@@]1(c3ccc4c(c3)OCO4)[C@H](c3ccccc3)C[C@@H](O)[C@@]21OC [Compound 3, 8b-O-methyl-4′-demethoxy-3′,4′-methylenedioxyrocaglaol] |  | > 20 | > 50 |  |
| COC(=O)[C@H]1[C@@H](O)[C@@]2(OC)c3c(OC)cc(OC)cc3O[C@@]2(c2ccc3c(c2)OCO3)[C@@H]1c1ccccc1 [Compound 4, methyl 8b-O-methyl-4′-demethoxy-3′,4′-methylenedioxyrocaglate] |  | > 20 | > 50 |  |
| COc1ccc([C@@]23Oc4cc(OC)cc(OC)c4[C@]2(O)[C@H](O)C[C@H]3c2ccccc2)cc1 [Compound 9, rocaglaol] | 0.005 |  | > 50 | effect on LNCaP cells (cell cycle, apoptosis) [5]: cause G2/M-phase cell cycle arrest and to induce apoptosis; NF-κB (p65) inhibitory activity (in words) (NF-κB (p65)): significant NF-κB (p65) inhibitory activity; times more potent than the control compound rocaglamide in NF-κB (p65) assay (NF-κB (p65)): more than 10 times |
| COC(=O)[C@H]1[C@@H](O)[C@@]2(O)c3c(OC)cc(OC)cc3O[C@@]2(c2ccc(OC)cc2)[C@@H]1c1ccccc1 [Compound 10, methyl rocaglate] |  | > 20 | > 50 |  |
| COc1cc(OC)c2c(c1)O[C@@]1(c3ccc4c(c3)OCO4)[C@H](c3ccccc3)C[C@@H](O)[C@@]21O [Compound 11, 4′-demethoxy-3′,4′-methylenedioxyrocaglaol] | 0.33 |  | > 50 | NF-κB (p65) inhibitory activity (in words) (NF-κB (p65)): significant NF-κB (p65) inhibitory activity |
| COC(=O)[C@H]1[C@@H](O)[C@@]2(O)c3c(OC)cc(OC)cc3O[C@@]2(c2ccc3c(c2)OCO3)[C@@H]1c1ccccc1 [Compound 12, methyl 4′-demethoxy-3′,4′-methylenedioxyrocaglate] | 3.54 |  | > 50 | NF-κB (p65) inhibitory activity (in words) (NF-κB (p65)): significant NF-κB (p65) inhibitory activity |
| COc1ccc([C@@]23Oc4cc(OC)cc(OC)c4[C@]2(O)[C@H](O)[C@H](C(N)=O)[C@H]3c2ccccc2)cc1 [Compound 13, didesmethylrocaglamide] |  | > 20 | > 50 |  |
| COC(=O)[C@H]1[C@@H](OC=O)[C@@]2(O)c3c(OC)cc(OC)cc3O[C@@]2(c2ccc3c(c2)OCO3)[C@@H]1c1ccccc1 [Compound 14, methyl 1-formyloxy-4′-demethoxy-3′,4′-methylenedioxyrocaglate] |  |  | > 50 |  |
| COC(=O)[C@H]1[C@@H](OC=O)[C@@]2(O)c3c(OC)cc(OC)cc3O[C@@]2(c2ccc(OC)cc2)[C@@H]1c1ccccc1 [Compound 15, methyl 1-formyloxyrocaglate] |  | > 20 | > 50 |  |
| COC(=O)[C@H]1[C@@H](O)[C@@]2(OC)c3c(OC)cc(OC)cc3O[C@@]2(c2ccc(OC)cc2)[C@@H]1c1ccccc1 [Compound 16, methyl 8b-O-methylrocaglate] |  | > 20 | > 50 | cytotoxicity result in MONO-MAC-6 [1]: negative result; cytotoxicity result in MONO-MAC-1 [2]: negative result |
| CC(C)[C@H]1CC[C@]2(C)C(=O)CCC(C=O)=C[C@H]12 [Compound 17, 2-oxaisodauc-5-en-12-al] | 0.005 |  |  | NF-κB (p65) inhibitory activity (in words) (NF-κB (p65)): significant NF-κB (p65) inhibitory activity; times more potent than the control compound rocaglamide in NF-κB (p65) assay (NF-κB (p65)): more than 10 times |
| CC(C)=C[C@H](O)[C@@H](O)[C@@H](CO)[C@H]1CC[C@@]2(C)[C@@H]3CC[C@H]4C(C)(C)[C@@H](O)CC[C@@]45C[C@@]35CC[C@]12C [argenteanol] |  | > 20 |  |  |
| CC1(C)[C@H](O)CC[C@]2(C)[C@H]3CC[C@@H]4[C@@H]([C@]5(C)CCC(=O)O5)CC[C@@]4(C)[C@]3(C)CC[C@@H]12 [cabraleahydroxylactone] |  | > 20 |  |  |
| CC1=CC(O)N(CCCCNC(=O)/C=C/c2ccccc2)C1=O (stereo not shown) [gigantamide A] | > 20 |  |  |  |
| COc1ccc([C@@]23Oc4cc(OC)cc(OC)c4[C@]2(O)[C@H](O)[C@H](C(=O)N(C)C)[C@H]3c2ccccc2)cc1 [rocaglamide, reference compound] |  |  | > 50 |  |
| COc1cc2ccc(=O)oc2cc1O [scopoletin] |  | > 20 |  |  |
